Biological target: skeletal myofibrils (myosin ATPase activity)
Assay: Skeletal Myofibril ATPase Assay
Format: biochemical
Settings: PK-LDH coupled, absorbance at 340 nm
In short: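 Skeletal myofibril ATPase measured by PK-LDH-coupled NADH depletion at 340 nm, read every 1.5–2 min for 1 h; pCa buffer with PIPES/CaCl2/EGTA, pH 7.0. Rate taken as max–min absorbance, normalised to 1% DMSO vehicle (100%) and no change (0%); IC50 from four-parameter fit, bottom ≥0.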

Row | SMILES | IC50
1 | O=c1ccc(-c2cnc(OCc3ccccc3)nc2)nn1Cc1cncc(F)c1 [Compound 138] | < 10 µM
2 | O=c1ccc(-c2ccc(OC(F)F)cc2)nn1Cc1nnc(C2CC2)[nH]1 [Compound 228, 2-((5-cyclopropyl-4H-1,2,4-triazol-3-yl)methyl)-6-(4-(difluoromethoxy)phenyl)-pyridazin-3(2H)-one] | > 100 µM
3 | O=c1ccc(-c2cnc(N3CCCC3C(F)(F)F)nc2)nn1Cc1cncc(F)c1 (stereo not drawn) [Compound 54, 2-((5-fluoropyridin-3-yl)methyl)-6-(2-(2-(trifluoromethyl)pyrrolidin-l-yl)pyrimidin-5-yl)pyridazin-3(2H)-one] | < 10 µM
4 | Cc1ncc(Cn2nc(-c3cnc(OCC(C)C)nc3)ccc2=O)s1 [Compound 130, 6-(2-isobutoxypyrimidin-5-yl)-2-((2-methylthiazol-5-yl)methyl)pyridazine-3(2H)-one] | < 10 µM
5 | O=c1ccc(-c2ccc(OC(F)F)nc2)nn1Cc1ocnc1-c1ccccc1 [Compound 24, 6-(6-(difluoromethoxy)pyridin-3-yl)-2-((4-phenyloxazol-5-yl)methyl)pyridazin-3(2H)-one] | > 100 µM
6 | Cc1nnc(Cn2nc(-c3ccc(OC(F)F)cc3)ccc2=O)o1 [Compound 222, 6-(4-(difluoromethoxy)phenyl)-2-((5-methyl-1,3,4-oxadiazol-2-yl)methyl)pyridazin-3(2H)-one] | 10 to 100 µM
7 | O=c1ccc(-c2ccc(OC(F)F)cc2)nn1Cc1nnc(C2CC2)s1 [Compound 217, 2-((5-cyclopropyl-1,3,4-thiadiazol-2-yl)methyl)-6-(4-(difluoromethoxy)phenyl)-pyridazin-3(2H)-one] | 10 to 100 µM

Continued, values first:

Row | IC50 | SMILES
8 | < 10 µM | CN(CC(F)(F)F)c1ncc(-c2ccc(=O)n(Cc3cncc(F)c3)n2)cn1 [Compound 50, 2-((5-fluoropyridin-3-yl)methyl)-6-(2-(methyl(2,2,2-trifluoroethyl)amino)pyrimidin-5-yl)pyridazin-3(2H)-one]
9 | < 10 µM | O=c1ccc(-c2cnc(OCC(F)(F)F)nc2)nn1Cc1nc(-c2ccc(F)cc2)no1 [Compound 88, 2-((3-(4-fluorophenyl)-1,2,4-oxadiazol-5-yl)methyl)-6-(2-(2,2,2-trifluoroethoxy)pyrimidin-5-yl)pyridazine-3(2H)-one]
10 | < 10 µM | O=c1ccc(-c2cnc(OCC(F)(F)F)nc2)nn1Cc1cnccc1F [Compound 79, 2-((4-fluoropyridin-3-yl)methyl)-6-(2-(2,2,2-trifluoroethoxy)pyrimidin-5-yl)pyridazin-3(2H)-one]
11 | < 10 µM | O=c1ccc(-c2cnc(OCC(F)(F)F)nc2)nn1Cc1cncs1 [Compound 59, 2-(thiazol-5-ylmethyl)-6-(2-(2,2,2-trifluoroethoxy)pyrimidin-5-yl)pyridazin-3(2H)-one]
12 | < 10 µM | CCOc1ncc(-c2ccc(=O)n(Cc3cncc(F)c3)n2)cn1 [Compound 68, 6-(2-ethoxypyrimidin-5-yl)-2-((5-fluoropyridin-3-yl)methyl)pyridazine-3(2H)-one]
13 | < 10 µM | CC(C)(C)COc1ncc(-c2ccc(=O)n(Cc3cncc(F)c3)n2)cn1 [Compound 104, 2((5-fluoropyridin-3-yl)methyl)-6-(2-(neopentyloxy)pyrimidin-5-yl)pyridazine-3(2H)-one]
14 | > 100 µM | O=c1ccc(-c2cnc(OCC(F)(F)F)nc2)nn1Cc1cccnc1O [Compound 47, 2-((2-hydroxypyridin-3-yl)methyl)-6-(2-(2,2,2-trifluoroethoxy)pyrimidin-5-yl)pyridazin-3(2H)-one]
15 | < 10 µM | Cc1c(-c2ccccc2)noc1Cn1nc(-c2cnc(OCC(F)(F)F)nc2)ccc1=O [Compound 39, 2-((4-methyl-3-phenylisoxazol-5-yl)methyl)-6-(2-(2,2,2-trifluoroethoxy)pyrimidin-5-yl)pyridazin-3(2H)-one]
16 | < 10 µM | COC(C)(C)COc1ncc(-c2ccc(=O)n(Cc3cncc(F)c3)n2)cn1 [Compound 125, 2-((5-fluoropyridin-3-yl)methyl)-6-(2-(2-methoxy-2-methylpropoxy)pyrimidin-5-yl)pyridazine-3(2H)-one]

From patent US11873290B2, “Pyridazinone compounds and uses thereof” (Edgewise Therapeutics, Inc., priority 2018, dated 2024)
